Data taken from patent US5036157A, “Aryl derivatives” (Burroughs Wellcome Co., priority 1987, dated 1991).

Assays:
Cyclooxygenase (CO) = molecular target: T1, Cyclooxygenase (CO) (Homo sapiens, UniProt P23219); assay: In vitro inhibition of Cyclooxygenase (CO); leukocyte homogenate with arachidonic acid, radioimmunoassay for thromboxane; assay type: biochemical; settings: homogenised leukocytes from aspirin-free volunteers, 5 μM arachidonic acid, 37°, 5 minutes; thomboxane B4 (CO product)
T1 construct: The leukocytes were homogenised and 5 μM arachidonic acid added; endogenous in cells; host or cells: homogenate of leukocytes from blood of normal aspirin-free volunteers
T1 sequence (P23219 24-599): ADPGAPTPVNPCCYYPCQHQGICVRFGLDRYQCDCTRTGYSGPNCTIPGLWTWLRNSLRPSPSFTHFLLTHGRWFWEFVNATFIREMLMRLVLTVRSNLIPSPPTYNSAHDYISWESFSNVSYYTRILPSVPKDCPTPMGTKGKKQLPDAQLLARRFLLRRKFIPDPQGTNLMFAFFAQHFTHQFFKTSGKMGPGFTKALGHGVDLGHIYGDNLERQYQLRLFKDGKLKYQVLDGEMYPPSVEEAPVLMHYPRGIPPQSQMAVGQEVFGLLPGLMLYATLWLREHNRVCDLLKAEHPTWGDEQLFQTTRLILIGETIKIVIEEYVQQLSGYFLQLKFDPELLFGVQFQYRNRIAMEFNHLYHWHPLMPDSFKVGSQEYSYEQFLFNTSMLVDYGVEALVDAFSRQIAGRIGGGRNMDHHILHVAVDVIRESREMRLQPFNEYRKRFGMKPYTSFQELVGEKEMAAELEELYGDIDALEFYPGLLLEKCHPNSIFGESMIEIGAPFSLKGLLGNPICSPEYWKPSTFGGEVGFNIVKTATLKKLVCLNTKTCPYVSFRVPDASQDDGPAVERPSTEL
Description: (§1) In vitro inhibition of 5-lipoxygenase (LO) and Cyclooxygenase (CO)
(§2) Blood from normal aspirin-free volunteers was centrifuged to separate leukocytes from red cells and platelets. The leukocytes were homogenised and 5 μM arachidonic acid added, followed by incubation at 37° for 5 minutes. The reaction was stopped by boiling. Radioimmunassay was conducted for leukotriene B4 (an LO product) and thomboxane B4 (a CO product). Results were calculated as IC50 μM activity against each enzyme and as listed below.

5-lipoxygenase (LO) = molecular target: T2, 5-lipoxygenase (LO) (Homo sapiens, UniProt P09917); assay: In vitro inhibition of 5-lipoxygenase (LO); leukocyte homogenate with arachidonic acid, radioimmunoassay for leukotriene B4; assay type: biochemical; settings: homogenised leukocytes from aspirin-free volunteers, 5 μM arachidonic acid, 37°, 5 minutes; leukotriene B4 (LO product)
T2 construct: The leukocytes were homogenised and 5 μM arachidonic acid added; endogenous in cells; host or cells: homogenate of leukocytes from blood of normal aspirin-free volunteers
T2 sequence (P09917 1-674): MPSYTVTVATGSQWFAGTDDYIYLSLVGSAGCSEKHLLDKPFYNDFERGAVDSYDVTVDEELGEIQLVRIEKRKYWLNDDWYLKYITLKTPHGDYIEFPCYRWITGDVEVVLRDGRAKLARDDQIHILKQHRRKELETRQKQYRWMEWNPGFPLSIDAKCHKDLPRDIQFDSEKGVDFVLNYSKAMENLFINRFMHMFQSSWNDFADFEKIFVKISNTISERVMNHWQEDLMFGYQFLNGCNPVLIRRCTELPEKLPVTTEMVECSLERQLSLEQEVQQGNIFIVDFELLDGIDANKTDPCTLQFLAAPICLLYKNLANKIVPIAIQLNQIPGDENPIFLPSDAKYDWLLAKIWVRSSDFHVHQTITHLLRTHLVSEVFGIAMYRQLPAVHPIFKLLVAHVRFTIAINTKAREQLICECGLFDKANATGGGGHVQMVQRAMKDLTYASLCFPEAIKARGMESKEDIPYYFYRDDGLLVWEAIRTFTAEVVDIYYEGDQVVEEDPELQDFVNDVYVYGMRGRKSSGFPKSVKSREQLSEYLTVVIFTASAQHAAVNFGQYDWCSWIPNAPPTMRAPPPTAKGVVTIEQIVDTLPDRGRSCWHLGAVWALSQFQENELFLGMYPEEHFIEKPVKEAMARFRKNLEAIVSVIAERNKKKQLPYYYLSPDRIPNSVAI
Description: as §1, §2

## CN(O)C(=O)C=Cc1cccc(Oc2ccccc2)c1 [Example 1, 3-Phenoxy-N-methylcinnamohydroxamic Acid]
Cyclooxygenase (CO)
  IC50: 3 µM
5-lipoxygenase (LO)
  IC50: < 0.1 µM
